Laboratory results as given in patent EP1169036B1, “ANTI-VIRAL USES OF LEFLUNOMIDE PRODUCTS” (priority 1998, dated 1999).
pEC50, pIC50: −log10 of the molar value. Where two headings read alike, the source gives them in different places.

Assays:
CMV DNA polymerase = biological target: T1, CMV DNA polymerase (Human cytomegalovirus, UniProt P08546); assay type: biochemical; details: extracts of VHL/E-infected HUVEC or P8-infected HFF; PFA result at 1 mM
T1 construct: Crude protein extracts prepared from CMV-infected HUVEC or HFF; endogenous in cells; host or cells: HUVEC infected with CMV VHL/E or BUR/E, and HFF infected with CMV P8; Cells were sonicated and the clarified crude lysate was used
T1 sequence (P16790 whole entry): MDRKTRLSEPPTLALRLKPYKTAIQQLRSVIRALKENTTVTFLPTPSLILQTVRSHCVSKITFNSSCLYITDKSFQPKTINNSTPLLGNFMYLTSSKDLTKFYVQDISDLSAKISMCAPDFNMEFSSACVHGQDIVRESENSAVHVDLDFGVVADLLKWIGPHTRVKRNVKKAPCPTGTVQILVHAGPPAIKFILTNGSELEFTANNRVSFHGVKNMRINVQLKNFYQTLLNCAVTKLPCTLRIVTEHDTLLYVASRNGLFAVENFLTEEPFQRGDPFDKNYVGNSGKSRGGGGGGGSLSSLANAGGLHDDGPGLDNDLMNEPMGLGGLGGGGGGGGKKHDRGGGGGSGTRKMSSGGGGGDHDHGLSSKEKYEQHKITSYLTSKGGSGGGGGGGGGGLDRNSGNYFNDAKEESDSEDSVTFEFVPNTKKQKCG
T1 sequence (P08546 whole entry): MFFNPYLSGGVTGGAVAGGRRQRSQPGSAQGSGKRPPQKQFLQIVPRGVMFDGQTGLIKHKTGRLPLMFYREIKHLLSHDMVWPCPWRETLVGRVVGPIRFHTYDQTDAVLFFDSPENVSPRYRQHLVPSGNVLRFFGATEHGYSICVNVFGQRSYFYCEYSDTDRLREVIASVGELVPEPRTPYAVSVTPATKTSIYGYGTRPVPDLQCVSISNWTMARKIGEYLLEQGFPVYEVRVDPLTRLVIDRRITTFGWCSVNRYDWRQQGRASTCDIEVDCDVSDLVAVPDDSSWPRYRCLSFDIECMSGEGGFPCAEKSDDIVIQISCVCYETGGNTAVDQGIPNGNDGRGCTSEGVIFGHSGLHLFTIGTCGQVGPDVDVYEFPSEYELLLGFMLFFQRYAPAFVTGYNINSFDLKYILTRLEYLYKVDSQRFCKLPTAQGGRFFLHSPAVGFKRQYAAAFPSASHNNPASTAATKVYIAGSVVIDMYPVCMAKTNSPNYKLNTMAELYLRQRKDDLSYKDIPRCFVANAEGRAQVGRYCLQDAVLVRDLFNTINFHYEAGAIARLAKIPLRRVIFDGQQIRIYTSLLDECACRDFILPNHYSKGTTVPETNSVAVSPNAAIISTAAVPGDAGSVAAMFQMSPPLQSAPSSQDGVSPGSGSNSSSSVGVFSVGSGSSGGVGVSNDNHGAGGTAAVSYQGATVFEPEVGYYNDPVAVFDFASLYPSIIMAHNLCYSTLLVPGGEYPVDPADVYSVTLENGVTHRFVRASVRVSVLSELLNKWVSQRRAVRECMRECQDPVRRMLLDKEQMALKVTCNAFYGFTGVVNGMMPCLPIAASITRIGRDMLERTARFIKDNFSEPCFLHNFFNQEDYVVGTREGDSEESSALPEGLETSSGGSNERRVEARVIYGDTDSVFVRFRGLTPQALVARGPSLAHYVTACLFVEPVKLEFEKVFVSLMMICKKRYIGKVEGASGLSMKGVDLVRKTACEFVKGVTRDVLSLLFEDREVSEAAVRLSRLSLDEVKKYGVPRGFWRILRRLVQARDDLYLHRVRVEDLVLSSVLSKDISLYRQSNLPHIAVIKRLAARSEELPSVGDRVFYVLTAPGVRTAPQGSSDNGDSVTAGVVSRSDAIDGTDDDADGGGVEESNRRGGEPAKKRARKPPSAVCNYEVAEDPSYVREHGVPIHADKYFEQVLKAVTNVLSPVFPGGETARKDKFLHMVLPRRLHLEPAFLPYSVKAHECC

[1] = in vivo; cited from earlier work
CMV strain VHL/E = test: Immunohistochemical staining of CMV proteins in infected HUVEC; assay type: cell-based
Description: Experiments were conducted to determine at which point in the viral replication cycle leflunomide exerts its inhibitory effects. Immediately upon penetration of the host cell, CMV lower matrix protein pp65, a component of the viral tegument, translocates to the cell nucleus. Although the nuclear function of pp65 remains to be resolved, another tegument protein (pp71) that migrates in a similar manner acts in concert with cellular proteins to promote rapid transcription of immediate early (IE) viral genes. IE gene products are primarily regulatory, activating early gene transcription, whose products are essential for viral DNA replication. Activation of late genes, which code primarily for structural protein components of the virion, occurs late in the replicative cycle and is dependent upon viral DNA replication.
To localize potential A771726-induced lesions in this temporal series of events, a cross section of CMV proteins in infected cells was first visualized by immunohistochemical staining as follows. CMV strain VHL/E-inoculated HUVEC monolayers incubated in the presence or absence of 200 µM A771726 or 1 mM phosphonoformate (PFA) (as a positive control for late antigen inhibition) were fixed at various intervals and stained with mAb specific for pp65, 72 kD IE1, or late structural glycoprotein B (gB). […]

CMV DNA = assay type: cell-based; details: CMV-infected HFF (100 µM A771726) , identical in HUVEC (200 µM); 1 mM PFA; 48 hours
[2] = test system: CMV strain VHL/E or strain BUR/E; assay type: cell-based; details: HUVEC, A771726 200 µM, CsA 100 ng/ml, FK 506 1 ng/ml
uninfected cells [3] = test: Cytotoxicity, neutral red uptake by toxicity control cells (rhinovirus host cells, not named); assay type: cell-based; details: read-out: Neutral Red Uptake test IC50
Description: (§1) Cytotoxicity of each test compound is also evaluated as follows. In the initial CPE inhibition tests, two wells of uninfected cells treated with each concentration of test compound are run in parallel with the infected, treated wells. When the CPE is determined microscopically, the toxicity control cells are also examined microscopically for any changes in cell appearance compared to normal uninfected, untreated control cells. Changes, which may manifest as enlargement, granularity, ragged edges, filmy appearance, rounding, detachment from the surface of the well, or other changes, are given a designation of T (100% toxic), PVH (partially toxic-very heavy-80%), PH (partially toxic-heavy-60%), P (partially toxic-40%), PS (partially toxic-slight-20%) or 0 (no toxicity-0%) in accordance with the degree of cytotoxicity observed. […] A neutral red IC50 is also determined based on uptake of neutral red dye by the toxicity control cells.

[4] = test system: Madin Darby canine kidney (MDCK) cells; test: cells; assay type: cell-based; details: Canis lupus familiaris, cytotoxic concentration, positive control drug = ribavirin, read-out: CPE Inhibition test IC50
[5] = test system: Respiratory Syncytial Virus A; test: microbe, parasite or virus in culture; assay type: cell-based; details: human respiratory syncytial virus, MA104; read-out: CPE Inhibition test EC50
Adenovirus Type 1 [6] = test: microbe, parasite or virus in culture; assay type: cell-based; details: Human mastadenovirus C, A549; read-out: CPE Inhibition test EC50
[7] = test system: Parainfluenza Type 3 Virus; test: organism not typed; assay type: cell-based; details: MA104; read-out: CPE Inhibition test EC50
Adenovirus Type 1 [8] = test: microbe, parasite or virus in culture; assay type: cell-based; details: Human mastadenovirus C, A549; read-out: Neutral Red Uptake test EC50
[9] = test system: African green monkey kidney (MA-104) cells; test: cells; assay type: cell-based; details: Chlorocebus sabaeus, MA104, cytotoxic concentration, positive control drug = ribavirin, read-out: CPE Inhibition test IC50
[10] = test system: Respiratory Syncytial Virus A; test: microbe, parasite or virus in culture; assay type: cell-based; details: human respiratory syncytial virus, MA104; read-out: Neutral Red Uptake test EC50
[11] = test system: human lung carcinoma (A549) cells; test: cells; assay type: cell-based; details: read-out: CPE Inhibition test IC50
Rhinovirus Type 5 [12] = test: microbe, parasite or virus in culture; assay type: cell-based; details: Enterovirus; read-out: CPE Inhibition test EC50
Rhinovirus Type 5 [13] = test: Neutral red uptake test; assay type: cell-based; details: Enterovirus, read-out: Neutral Red Uptake test EC50
From the text: Environment. Microbiol, 31:35-38, 1976).

[14] = test system: Parainfluenza Type 3 Virus; test: organism not typed; assay type: cell-based; details: MA104; read-out: Neutral Red Uptake test EC50
[15] = test system: African green monkey kidney (MA-104) cells; test: Cytotoxicity, neutral red uptake by toxicity control cells; assay type: cell-based; details: Chlorocebus sabaeus, read-out: Neutral Red Uptake test IC50
[16] = test system: African green monkey kidney (CV-1) cells; test: cells; assay type: cell-based; details: Chlorocebus sabaeus, read-out: Neutral Red Uptake test IC50
[17] = test system: African green monkey kidney (CV-1) cells; test: cells; assay type: cell-based; details: Chlorocebus sabaeus, read-out: CPE Inhibition test IC50
[18] = test system: Madin Darby canine kidney (MDCK) cells; test: cells; assay type: cell-based; details: Canis lupus familiaris, cytotoxic concentration, positive control drug = ribavirin, read-out: Neutral Red Uptake test IC50
Measles Virus [19] = test: microbe, parasite or virus in culture; assay type: cell-based; details: Measles morbillivirus, CV-1; read-out: Neutral Red Uptake test EC50
Measles Virus [20] = test: microbe, parasite or virus in culture; assay type: cell-based; details: Measles morbillivirus, CV-1; read-out: CPE Inhibition test EC50
uninfected cells [21] = test: Cytotoxicity, microscopic reading of uninfected cells in the CPE inhibition test (rhinovirus host cells, not named); assay type: cell-based
Description: as §1

[22] = test system: rat CMV (RCMV RA67, Maastricht strain); test: Viral load in nude rats inoculated with rat CMV, plaque assay of tissue homogenates; assay type: in vivo, immunodeficient nude rats; details: leflunomide 15 mg/kg/day for 14 days, 14 days post-inoculation
hepatitis C = test: Clinical treatment of a patient with chronic hepatitis C, viral load by quantitative PCR; assay type: in vivo, human
Description: The patient is a person who received a liver transplant in January 1990 for hepatitis C. Over the following nine years they developed indolent hepatitis C with mildly elevated liver enzymes. Because of slowly progressive kidney impairment, presumably related to a combination of chronic hepatitis C and long term cyclosporine A treatment, they were started on leflunomide treatment. […] After an initial leflunomide loading dose of 300 mg daily for two days, a maintenance dose of 50 mg daily was started.
As the new treatment regimen was implemented, their kidney function improved; their serum creatinine fell from 3.6 mg/dl to 2.2 mg/dl and their BUN fell from 94 mg/dl to 55 mg/dl. Just before leflunomide was begun their hepatitis C viral load in peripheral blood was 3,120,000 copies, measured by quantitative PCR (Quest Diagnostics). After six weeks of therapy with leflunomide, their hepatitis C viral load had fallen to 1,480,000 copies, measured by the same PCR methodology.

[23] = run with Respiratory Syncytial Virus A
[24] = MA104, cytotoxic concentration, run with Parainfluenza Type 3 Virus, positive control drug = ribavirin

Structure (SMILES)	pIC50 ([4]; run with Influenza A (H1N1))	pIC50 ([4]; run with Influenza A (H3N2))	pIC50 ([4]; run with Influenza B)	pEC50 [5]	pEC50 [7]	pIC50 [9, 23]	pEC50 [10]	pEC50 [14]	pIC50 [15, 24]	pIC50 ([15]; MA104)	pIC50 [16]	pIC50 [17]	pIC50 ([18]; run with Influenza A (H1N1))	pIC50 ([18]; run with Influenza A (H3N2))	pIC50 ([18]; run with Influenza B)	pEC50 (Measles Virus [19])	pEC50 (Measles Virus [20])	also measured
O=C([O-])P(=O)(O)O.[Na+] [PFA, sodium phosphonoformate]																		viral DNA polymerase activity (CMV DNA polymerase): complete inhibition; toxicities (renal dysfunction, hypomagnesemia, hypokalemia, hypocalcemia, seizures, fever, rash), each, share of recipients [1]: more than 5%; expression of viral proteins pp65, IE1, gB (CMV strain VHL/E; 200 µM A771726 or 1 mM PFA, 24, 48, 96 hours pi): unable to express gB; pp65 and IE1 expression (CMV strain VHL/E; 1 mM PFA): unimpeded; quantities of viral DNA synthesized (CMV DNA): no detectable CMV DNA
C=CC[C@@H]1/C=C(\C)C[C@H](C)C[C@H](OC)[C@H]2O[C@@](O)(C(=O)C(=O)N3CCCC[C@H]3C(=O)O[C@H](/C(C)=C/[C@@H]3CC[C@@H](O)[C@H](OC)C3)[C@H](C)[C@@H](O)CC1=O)[C@H](C)C[C@@H]2OC [FK 506, tacrolimus]																		production of infectious virus (CMV production) [2]: no significant inhibition
Nc1ccn(C[C@@H](CO)OCP(=O)(O)O)c(=O)n1 [Cidofovir]																		Neutropenia, share of recipients [1]: approximately 10%
Cc1nocc1C(=O)Nc1ccc(C(F)(F)F)cc1 [Compound 99-126, N-(4-trifluoromethylphenyl)-3-methylisoxazol-4-carboxamide]	4.20	4.14	4.14	< 4.00	< 4.00	4.40	< 4.00	4.70	4.70	4.52	4.60	4.22	4.32	4.52	4.34	4.85	5.00	pIC50 (uninfected cells [3]): < 4.00; pEC50 (Adenovirus Type 1 [6]): < 4.00; pEC50 (Adenovirus Type 1 [8]): < 4.00; pIC50 ([9]; run with Parainfluenza Type 3 Virus): 4.96; pIC50 [11]: 4.22; pEC50 (Rhinovirus Type 5 [12]): 4.00; pEC50 (Rhinovirus Type 5 [13]): < 4.00; pIC50 (uninfected cells [21]): 4.00
Cc1oncc1C(=O)Nc1ccc(C(F)(F)F)cc1 [leflunomide, N-(4-trifluoromethylphenyl)-5-methylisoxazol-4-carboxamide]																		viral load in salivary gland, lung and spleen [22]: significantly reduced viral load; hepatitis C viral load in peripheral blood (hepatitis C; after six weeks of leflunomide (300 mg daily two days, then 50 mg daily), 3,120,000 copies before): 1,480,000 copies; drop in hepatitis C viral load (hepatitis C; one patient, six weeks of leflunomide therapy): 50%
Cc1oncc1C(=O)Nc1cccc(C(F)(F)F)c1 [Compound 99-127, N-(3-trifluoromethylphenyl)-5-methylisoxazol-4-carboxamide]	< 3.70	4.20	< 3.70	< 4.00	< 4.00	4.52	< 4.00	< 4.00	4.82	4.70	4.52	4.22	4.18	4.34	4.22	< 4.00	< 4.00	
